The results in this text go back to PMC7919409, “Crystal structures of adenylylated and unadenylylated PII protein GlnK from Corynebacterium glutamicum” (Acta Crystallographica. Section D, Structural Biology, 2021).

The assay concerns the target T1, adGlnK (adenylylated GlnK) (Corynebacterium glutamicum, UniProt H7C694).
T1 construct: gene glnB; full length, untagged (stop codon inserted before Xa-Strep tag), produced in C. glutamicum; Tyr51 O-adenylylated (AMP covalently attached); homotrimer, hexamer in crystal; 112 residues
Briefly: X-ray crystal structure, […] A. It is filed as binding. As to conditions: fortuitously bound, co-purified (no nucleotide added), one of six effector sites at subunit interface, Tyr51 adenylylated, Mg, Ca, pH 7.1, 292 K.

SMILES strings stand for the structures.

T1 sequence (H7C694 entry or part of it): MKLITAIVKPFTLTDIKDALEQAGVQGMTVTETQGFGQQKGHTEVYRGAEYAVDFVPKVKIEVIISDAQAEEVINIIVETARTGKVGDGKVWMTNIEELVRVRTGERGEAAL

Regarding `Nc1ncnc2c1ncn2[C@@H]1O[C@H](COP(=O)(O)OP(=O)(O)O)[C@@H](O)[C@H]1O` [ADP], the “X-ray crystal structure, 1.8 A” value was “fortuitous binding of AMP and ADP was observed in the remaining two binding sites”.

With `Nc1ncnc2c1ncn2[C@@H]1O[C@H](COP(=O)(O)O)[C@@H](O)[C@H]1O` [AMP], the “X-ray crystal structure, 1.8 A” value (non-covalent AMP in ATP-binding pocket, distinct from) was “fortuitous binding of AMP and ADP was observed in the remaining two binding sites”.
